This is an account of results in article PMC9311154 (British Journal of Clinical Pharmacology, 2022).

For one data set, the target named is CYP3A4 (Homo sapiens, UniProt P08684). Kind of data set: Midazolam interaction study. The settings on record: for AUC ratio day 1/day−1, point estimate geometric LS means (geometric 90% CI) / AUC ratio day 10/day−1, point estimate geometric LS means (geometric 90% CI): ANOVA. The class given is in vivo.
A further data set is described as follows: Safety and tolerability. The class given is in vivo, human. The conditions noted are these: midazolam alone.
[1] abbreviates: BAY 2433334 25 mg OD + Midazolam.
[2] abbreviates: BAY 2433334 75 mg OD + Midazolam.
The mark [3] stands for this setting: day 1, coadministration of BAY 2433334 25 mg.
[4] abbreviates: day 1, coadministration of BAY 2433334 75 mg.
The mark [5] stands for this setting: day 10, BAY 2433334 25 mg once daily.
[6] abbreviates: BAY 2433334 25 mg treatment sequence.
[7] abbreviates: BAY 2433334 75 mg treatment sequence.

CYP3A4, sequence (P08684 whole entry): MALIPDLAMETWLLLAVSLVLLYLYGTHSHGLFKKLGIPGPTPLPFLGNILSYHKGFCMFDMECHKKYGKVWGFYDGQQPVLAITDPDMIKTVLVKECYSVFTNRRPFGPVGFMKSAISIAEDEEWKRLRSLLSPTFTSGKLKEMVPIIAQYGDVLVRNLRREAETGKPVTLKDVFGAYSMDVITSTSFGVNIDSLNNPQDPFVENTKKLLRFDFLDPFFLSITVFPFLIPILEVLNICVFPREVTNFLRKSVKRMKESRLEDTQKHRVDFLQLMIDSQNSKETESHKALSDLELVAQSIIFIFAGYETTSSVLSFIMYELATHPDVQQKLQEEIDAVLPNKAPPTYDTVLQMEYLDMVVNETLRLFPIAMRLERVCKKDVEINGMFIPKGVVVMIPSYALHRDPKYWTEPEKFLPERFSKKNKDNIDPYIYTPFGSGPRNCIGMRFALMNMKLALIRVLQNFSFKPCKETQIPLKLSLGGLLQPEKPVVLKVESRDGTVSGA

What is called half-life is how long it takes for the measured level to halve. Consider `Cc1ncc2n1-c1ccc(Cl)cc1C(c1ccccc1F)=NC2` [Midazolam, midazolam], for which the “AUC ratio day 1/day−1, point estimate geometric LS means (geometric 90% CI)” value was 1.0415 (0.9659–1.1230) on CYP3A4 (setting [1]) and 1.0451 (0.9785–1.1164) at CYP3A4 (setting [2]). Besides, the “AUC ratio day 10/day−1, point estimate geometric LS means (geometric 90% CI)” value was 1.0630 (0.9859–1.1461) on CYP3A4 (setting [1]); 1.1736 (1.0963–1.2564) on CYP3A4 (setting [2]); 1.1736 [1.0963–1.2564] at CYP3A4 (BAY 2433334 75 mg OD + Midazolam, listed as midazolam). The “increase in the AUC” value amounted to 4.2% at CYP3A4 (setting [3]); 4.5% on CYP3A4 (setting [4]); 6.3% on CYP3A4 (setting [5]); 17% at CYP3A4 (day 10, pre‐ and coadministration of BAY 2433334 75 mg). On CYP3A4 (human, plasma, oral, 7.5 mg, t1/2, Day −1, midazolam 7.5 mg alone, BAY 2433334 75 mg OD group, median (range), geometric mean not calculated), the half-life was 287 min. For the same molecule, the tmax on CYP3A4 (human, plasma, oral, 7.5 mg, tmax, Day −1, midazolam 7.5 mg alone, BAY 2433334 25 mg OD group, median (range)) came out at 35 min; at CYP3A4 (human, plasma, oral, 7.5 mg, tmax, Day −1, midazolam 7.5 mg alone, BAY 2433334 75 mg OD group, median (range)) it was 45 min; on CYP3A4 (human, plasma, oral, tmax, Day 1, midazolam 7.5 mg with BAY 2433334 25 mg OD, median (range)) it was 44.5 min; on CYP3A4 (human, plasma, oral, tmax, Day 1, midazolam 7.5 mg with BAY 2433334 75 mg OD, median (range)), 45 min; on CYP3A4 (human, plasma, oral, tmax, Day 10, midazolam 7.5 mg with BAY 2433334 25 mg OD, median (range)) it was 45 min; on CYP3A4 (human, plasma, oral, tmax, Day 10, midazolam 7.5 mg with BAY 2433334 75 mg OD, median (range)) it was 45 min. Further, the “Adverse event(s) of special interest” value in the data set “Safety and tolerability” (setting [6]) is 0 Number (%); in “Safety and tolerability” (setting [7]) it was 0 Number (%). For the same molecule, the “Study drug‐related adverse event(s)” value in the data set “Safety and tolerability” (setting [6]) is reported as 0 Number (%); in “Safety and tolerability” (setting [7]), 0 Number (%). The “Study procedure‐related adverse event(s)” value is reported as 3 (12.5%) Number (%) in “Safety and tolerability” (setting [6]); 1 (4.2%) Number (%) in the data set “Safety and tolerability” (setting [7]).

With `OCc1ncc2n1-c1ccc(Cl)cc1C(c1ccccc1F)=NC2` [α‐Hydroxymidazolam, α‐hydroxymidazolam], the “AUC ratio day 1/day−1, point estimate geometric LS means (geometric 90% CI)” value at CYP3A4 (setting [1]) is listed as 1.0650 (0.9661–1.1741); at CYP3A4 (setting [2]), 0.9856 (0.9206–1.0551). Moreover, the “AUC ratio day 10/day−1, point estimate geometric LS means (geometric 90% CI)” value at CYP3A4 (setting [1]) was 1.0560 (0.9595–1.1622); at CYP3A4 (setting [2]) it was 0.9864 (0.9169–1.0612); at CYP3A4 (BAY 2433334 75 mg OD + Midazolam, listed as α‐hydroxymidazolam), 0.9864 [0.9169–1.0612]. Moreover, the tmax at CYP3A4 (Day 1, midazolam 7.5 mg with BAY 2433334 25 mg OD, median (range)) is on record as 0.742 (0.500–4.00) h; at CYP3A4 (Day 1, midazolam 7.5 mg with BAY 2433334 75 mg OD, median (range)), 0.750 (0.483–4.00) h; on CYP3A4 (Day 10, midazolam 7.5 mg with BAY 2433334 25 mg OD, median (range)) it was 0.750 (0.483–4.00) h; on CYP3A4 (Day 10, midazolam 7.5 mg with BAY 2433334 75 mg OD, median (range)) it was 0.750 (0.483–2.00) h; at CYP3A4 (Day −1, midazolam 7.5 mg alone, BAY 2433334 25 mg OD group, median (range)), 0.708 (0.483–4.00) h; at CYP3A4 (Day −1, midazolam 7.5 mg alone, BAY 2433334 75 mg OD group, median (range)), 0.750 (0.500–3.00) h. Moreover, the “increase in the AUC” value was 4.4% on CYP3A4 (setting [3]) and 6.0% at CYP3A4 (setting [5]). The “decrease in the AUC” value on CYP3A4 (setting [4]) is recorded as 1.5%. Moreover, the “time to maximum plasma concentrations, range across treatments” value at CYP3A4 (with and without BAY 2433334) is 0.583 to 0.750 h.
